# Like-named read-outs stand apart in the source and are kept apart here.
# Legend:
# [1] = tested on: RS4;11 cells; test: RS4;11 cell viability assay (CellTiter Glo); format: cell-based; conditions: 10% human serum, 48 hours
# In short: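 Cells seeded at 50,000 per well and exposed to compounds for 48 h at 37 C, 5% CO2 in the presence of 10% human serum. Viability read by CellTiter Glo; EC50 derived from percentage of viable cells versus untreated controls.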
# [2] = tested on: lymphocytes; test: Lymphocyte reduction in C57BL/6 mice; format: in vivo; conditions: Mus musculus, ip
# Method: An experiment was performed to evaluate the effect of Bcl-2 selective/Bcl-xL sparing compounds on immune cells and platelets, as evaluated in C57Bl/6 mice. Mice were treated four days with compounds (doses of 30 mg/kg, administered by intraperitoneal injection every day) and cell numbers were measured with a Cell Dyn hematology analyzer 24 hours after the first and last doses. Exposure of the compound (area under the curve) was calculated by using time points of 1, 6, 10 and 24 hours after the last dose.
# [3] = target: GST-Bcl-2 (Homo sapiens, UniProt P10415); test: TR-FRET Bcl-2 binding assay (F-Bak peptide probe); conditions: GST-Bcl-2 1 nM, F-Bak peptide probe 100 nM, Tb-anti-GST 1 nM; Wang's equation; '<' = below limit of detection
# Chain of GST-Bcl-2 (P10415 whole entry): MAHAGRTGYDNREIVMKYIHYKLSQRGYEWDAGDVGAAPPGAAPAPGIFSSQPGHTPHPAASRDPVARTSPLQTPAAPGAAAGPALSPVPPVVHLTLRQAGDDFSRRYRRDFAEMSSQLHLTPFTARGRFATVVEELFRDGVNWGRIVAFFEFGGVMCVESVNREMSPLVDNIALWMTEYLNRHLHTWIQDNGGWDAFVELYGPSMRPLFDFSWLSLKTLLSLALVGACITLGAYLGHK
# In short: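 Competitive TR-FRET displacement of F-Bak peptide probe from GST-Bcl-2 detected with Tb-anti-GST antibody; compounds serially diluted in DMSO from 50 μM (2× starting concentration). Mixtures incubated 3 h at room temperature, read at 340 nm excitation with 520 and 495 nm emission. Ki derived by Wang's equation.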
# [4] = 30 mg/kg intraperitoneal every day for four days, 24 hours after the last dose, read-out: Lymphocyte reduction % inh. day 4
# [5] = 30 mg/kg intraperitoneal every day, 24 hours after the first dose, read-out: Lymphocyte reduction % inh. day 1
Structure (SMILES),EC50 [1] [µM],"inhibition at 30 mg/kg [2, 4] [%]","inhibition at 30 mg/kg [2, 5] [%]",Ki [3] [µM]
"CC1(C)CCC(CN2CCN(c3ccc(C(=O)NS(=O)(=O)c4ccc(NC[C@@H]5[C@H]6COC[C@@H]56)c([N+](=O)[O-])c4)c(Oc4cnc5[nH]ccc5c4)c3)CC2)=C(c2ccc(Cl)cc2)C1 [Example 14, 4-(4-{[2-(4-chlorophenyl)-4,4-dimethylcyclohex-1-en-1-yl]methyl}piperazin-1-yl)-N-[(3-nitro-4-{[(1R,5S,6S)-3-oxabicyclo[3.1.0]hex-6-ylmethyl]amino}phenyl)sulfonyl]-2-(1H-pyrrolo[2,3-b]pyridin-5-yloxy)benzamide]",0.01,54,61,< 0.0001
"C[C@@H](Nc1ccc(S(=O)(=O)NC(=O)c2ccc(N3CCN(CC4=C(c5ccc(Cl)cc5)CC(C)(C)CC4)CC3)cc2Oc2cnc3[nH]ccc3c2)cc1[N+](=O)[O-])C1CCOCC1 [Example 3, 4-(4-{[2-(4-chlorophenyl)-4,4-dimethylcyclohex-1-en-1-yl]methyl}piperazin-1-yl)-N-[(3-nitro-4-{[(1R)-1-(tetrahydro-2H-pyran-4-yl)ethyl]amino}phenyl)sulfonyl]-2-(1H-pyrrolo[2,3-b]pyridin-5-yloxy)benzamide]",0.15,< 15,< 15,< 0.0001
"CC1(C)CCC(CN2CCN(c3ccc(C(=O)NS(=O)(=O)c4ccc(NCC5(O)COCCOC5)c([N+](=O)[O-])c4)c(Oc4cnc5[nH]ccc5c4)c3)CC2)=C(c2ccc(Cl)cc2)C1 [Example 25, 4-(4-{[2-(4-chlorophenyl)-4,4-dimethylcyclohex-1-en-1-yl]methyl}piperazin-1-yl)-N-[(4-{[(6-hydroxy-1,4-dioxepan-6-yl)methyl]amino}-3-nitrophenyl)sulfonyl]-2-(1H-pyrrolo[2,3-b]pyridin-5-yloxy)benzamide]",0.036,15,29,< 0.0001
"CC1(C)CCC(CN2CCN(c3ccc(C(=O)NS(=O)(=O)c4ccc(NCC5COC5)c([N+](=O)[O-])c4)c(Oc4cnc5[nH]ccc5c4)c3)CC2)=C(c2ccc(Cl)cc2)C1 [Example 23, 4-(4-{[2-(4-chlorophenyl)-4,4-dimethylcyclohex-1-en-1-yl]methyl}piperazin-1-yl)-N-({3-nitro-4-[(oxetan-3-ylmethyl)amino]phenyl}sulfonyl)-2-(1H-pyrrolo[2,3-b]pyridin-5-yloxy)benzamide]",0.023,15,37,< 0.0001
"CC1(C)CCC(CN2CCN(c3ccc(C(=O)NS(=O)(=O)c4ccc(NCC5CCSCC5)c([N+](=O)[O-])c4)c(Oc4cnc5[nH]ccc5c4)c3)CC2)=C(c2ccc(Cl)cc2)C1 [Example 22, 4-(4-{[2-(4-chlorophenyl)-4,4-dimethylcyclohex-1-en-1-yl]methyl}piperazin-1-yl)-N-({3-nitro-4-[(tetrahydro-2H-thiopyran-4-ylmethyl)amino]phenyl}sulfonyl)-2-(1H-pyrrolo[2,3-b]pyridin-5-yloxy)benzamide]",0.028,44,40,< 0.0001
"C[C@@H]1CO[C@H](CNc2ccc(S(=O)(=O)NC(=O)c3ccc(N4CCN(CC5=C(c6ccc(Cl)cc6)CC(C)(C)CC5)CC4)cc3Oc3cnc4[nH]ccc4c3)cc2[N+](=O)[O-])CO1 [Example 24, 4-(4-{[2-(4-chlorophenyl)-4,4-dimethylcyclohex-1-en-1-yl]methyl}piperazin-1-yl)-N-{[4-({[(2R,5R)-5-methyl-1,4-dioxan-2-yl]methyl}amino)-3-nitrophenyl]sulfonyl}-2-(1H-pyrrolo[2,3-b]pyridin-5-yloxy)benzamide]",0.014,58,48,< 0.0001
"CC1(C)CCC(CN2CCN(c3ccc(C(=O)NS(=O)(=O)c4ccc(NCC5(O)CCC(F)(F)CC5)c([N+](=O)[O-])c4)c(Oc4cnc5[nH]ccc5c4)c3)CC2)=C(c2ccc(Cl)cc2)C1 [Example 26, 4-(4-{[2-(4-chlorophenyl)-4,4-dimethylcyclohex-1-en-1-yl]methyl}piperazin-1-yl)-N-[(4-{[(4,4-difluoro-1-hydroxycyclohexyl)methyl]amino}-3-nitrophenyl)sulfonyl]-2-(1H-pyrrolo[2,3-b]pyridin-5-yloxy)benzamide]",0.044,23,38,< 0.0001
"CC(C)(O)CCNc1ccc(S(=O)(=O)NC(=O)c2ccc(N3CCN(CC4=C(c5ccc(Cl)cc5)CC(C)(C)CC4)CC3)cc2Oc2cnc3[nH]ccc3c2)cc1[N+](=O)[O-] [Example 12, 4-(4-{[2-(4-chlorophenyl)-4,4-dimethylcyclohex-1-en-1-yl]methyl}piperazin-1-yl)-N-({4-[(3-hydroxy-3-methylbutyl)amino]-3-nitrophenyl}sulfonyl)-2-(1H-pyrrolo[2,3-b]pyridin-5-yloxy)benzamide]",0.03,27,41,< 0.0001
"CC1(C)CCC(CN2CCN(c3ccc(C(=O)NS(=O)(=O)c4ccc(NN5CCOCC5)c([N+](=O)[O-])c4)c(Oc4cnc5[nH]ccc5c4)c3)CC2)=C(c2ccc(Cl)cc2)C1 [Example 16, 4-(4-{[2-(4-chlorophenyl)-4,4-dimethylcyclohex-1-en-1-yl]methyl}piperazin-1-yl)-N-{[4-(morpholin-4-ylamino)-3-nitrophenyl]sulfonyl}-2-(1H-pyrrolo[2,3-b]pyridin-5-yloxy)benzamide]",0.067,< 15,< 15,< 0.0001
"C[C@@H]1CO[C@@H](CNc2ccc(S(=O)(=O)NC(=O)c3ccc(N4CCN(CC5=C(c6ccc(Cl)cc6)CC(C)(C)CC5)CC4)cc3Oc3cnc4[nH]ccc4c3)cc2[N+](=O)[O-])CO1 [Example 44, 4-(4-{[2-(4-chlorophenyl)-4,4-dimethylcyclohex-1-en-1-yl]methyl}piperazin-1-yl)-N-{[4-({[(2S,5R)-5-methyl-1,4-dioxan-2-yl]methyl}amino)-3-nitrophenyl]sulfonyl}-2-(1H-pyrrolo[2,3-b]pyridin-5-yloxy)benzamide]",0.0047,60,66,< 0.0001
"C[C@@H]1COC[C@H](CNc2ccc(S(=O)(=O)NC(=O)c3ccc(N4CCN(CC5=C(c6ccc(Cl)cc6)CC(C)(C)CC5)CC4)cc3Oc3cnc4[nH]ccc4c3)cc2[N+](=O)[O-])O1 [Example 35, 4-(4-{[2-(4-chlorophenyl)-4,4-dimethylcyclohex-1-en-1-yl]methyl}piperazin-1-yl)-N-{[4-({[(2S,6R)-6-methyl-1,4-dioxan-2-yl]methyl}amino)-3-nitrophenyl]sulfonyl}-2-(1H-pyrrolo[2,3-b]pyridin-5-yloxy)benzamide]",0.012,49,54,< 0.0001
"CC1(C)CCC(CN2CCN(c3ccc(C(=O)NS(=O)(=O)c4ccc(NCC5(CO)CCOCC5)c([N+](=O)[O-])c4)c(Oc4cnc5[nH]ccc5c4)c3)CC2)=C(c2ccc(Cl)cc2)C1 [Example 10, 4-(4-{[2-(4-chlorophenyl)-4,4-dimethylcyclohex-1-en-1-yl]methyl}piperazin-1-yl)-N-{[4-({[4-(hydroxymethyl)tetrahydro-2H-pyran-4-yl]methyl}amino)-3-nitrophenyl]sulfonyl}-2-(1H-pyrrolo[2,3-b]pyridin-5-yloxy)benzamide]",0.0081,< 15,< 15,< 0.0001
"CC1(C)CCC(CN2CCN(c3ccc(C(=O)NS(=O)(=O)c4ccc(NC[C@H]5CCCOCC5)c([N+](=O)[O-])c4)c(Oc4cnc5[nH]ccc5c4)c3)CC2)=C(c2ccc(Cl)cc2)C1 [Example 20, 4-(4-{[2-(4-chlorophenyl)-4,4-dimethylcyclohex-1-en-1-yl]methyl}piperazin-1-yl)-N-[(3-nitro-4-{[(4S)-oxepan-4-ylmethyl]amino}phenyl)sulfonyl]-2-(1H-pyrrolo[2,3-b]pyridin-5-yloxy)benzamide]",0.019,57,20,< 0.0001
"CC1(C)CCC(CN2CCN(c3ccc(C(=O)NS(=O)(=O)c4ccc(NC[C@@H]5CCOC(C)(C)C5)c([N+](=O)[O-])c4)c(Oc4cnc5[nH]ccc5c4)c3)CC2)=C(c2ccc(Cl)cc2)C1 [Example 34, 4-(4-{[2-(4-chlorophenyl)-4,4-dimethylcyclohex-1-en-1-yl]methyl}piperazin-1-yl)-N-{[4-({[(4R)-2,2-dimethyltetrahydro-2H-pyran-4-yl]methyl}amino)-3-nitrophenyl]sulfonyl}-2-(1H-pyrrolo[2,3-b]pyridin-5-yloxy)benzamide]",0.013,61,< 15,< 0.0001
